{"source": "paper PMC8632988", "about": "“Inhibition of SYK and cSrc kinases can protect bone and cartilage in preclinical models of osteoarthritis and rheumatoid arthritis” (Scientific Reports, 2021)", "key": {"[1]": {"system": "mongrel rats, AIA model", "test": "Adjuvant-induced arthritis in rats", "assay_type": "in vivo", "experimental": "Rat adjuvant-induced arthritis (AIA) model was performed at Pharmenterprises, Russia as described previously^3 and approved by Ethics Committee of Pharmenterprises. Male 10 week old mongrel rats were divided into eleven groups: negative control (#1), positive control (#2) and nine treatment groups (#3–11), ten […] in each group. Group #1 was left intact, while subplantar injection of 0.1 mL of Complete Freund’s adjuvant (CFA, Sigma) was made on day 0 at right paws of rats in groups […]. […] Disease progression was monitored by measuring volumes of the right (involved) and left (non-involved) paws on days 0, 14, 18, 21, 25, and 28."}, "[2]": {"system": "Lewis rats, CIA model", "test": "Collagen-induced semi-established arthritis model in rats", "assay_type": "in vivo, rat", "experimental": "Rat CIA model was performed was performed at Pharmenterprises, Russia and approved by Ethics Committee of Pharmenterprises. Female Lewis rats with body weight of 164–183 g (Charles River Laboratories, Inc., Wilmington, MA) were injected with porcine type II collagen (Chondrex) emulsified with Freund’s Incomplete Adjuvant (Sigma Aldrich) at two sites at the base of the tail according to standard protocol. On day 7, the rats were boosted with a second subcutaneous injection. On day 6 of the study, rats were randomized by body weight into six groups: a control group of four, and five treatment groups of eight. […] Disease progression was monitored via daily ankle thickness measurements. At study termination on day 16 rats were anesthetized with Isoflurane, bled by vacutainer through the descending aorta to exsanguinate and then euthanized for tissue collection. Hind paws were transected at the level of the medial and lateral malleolus, weighed, and collected for microscopy.\n[…]"}, "[3]": {"molecular_target": "T1, VRK2 (Homo sapiens, UniProt Q86Y07)", "T1 construct": "purchased Reaction Biology Corporation", "T1 sequence (Q86Y07 whole entry)": "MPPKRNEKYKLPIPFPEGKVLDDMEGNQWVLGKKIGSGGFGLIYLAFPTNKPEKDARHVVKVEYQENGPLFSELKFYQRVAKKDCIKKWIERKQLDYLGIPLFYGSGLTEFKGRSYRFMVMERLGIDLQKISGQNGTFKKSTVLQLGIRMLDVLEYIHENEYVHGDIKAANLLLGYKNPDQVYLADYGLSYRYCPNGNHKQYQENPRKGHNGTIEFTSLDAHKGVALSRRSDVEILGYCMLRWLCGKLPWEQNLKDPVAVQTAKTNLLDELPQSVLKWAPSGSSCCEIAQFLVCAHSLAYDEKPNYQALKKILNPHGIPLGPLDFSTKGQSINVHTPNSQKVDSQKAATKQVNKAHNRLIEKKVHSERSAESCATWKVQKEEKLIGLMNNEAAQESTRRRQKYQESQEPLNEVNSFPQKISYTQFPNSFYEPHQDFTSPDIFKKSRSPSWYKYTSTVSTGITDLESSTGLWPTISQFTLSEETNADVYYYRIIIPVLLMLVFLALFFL", "test": "Kinase selectivity profile assay", "assay_type": "biochemical", "conditions": "read-out: Residual enzymatic activity", "summary_of_the_method": "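Radiometric kinase assay run by a standard protocol. Unbound phosphate was removed by washing filters in phosphoric acid, and product radioactivity gave percent remaining kinase activity versus DMSO vehicle reactions. Run in duplicate.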"}, "[4]": {"molecular_target": "T2, c-Src (Homo sapiens, UniProt P12931)", "T2 construct": "purchased Reaction Biology Corporation (assay service)", "T2 sequence (P12931 whole entry)": "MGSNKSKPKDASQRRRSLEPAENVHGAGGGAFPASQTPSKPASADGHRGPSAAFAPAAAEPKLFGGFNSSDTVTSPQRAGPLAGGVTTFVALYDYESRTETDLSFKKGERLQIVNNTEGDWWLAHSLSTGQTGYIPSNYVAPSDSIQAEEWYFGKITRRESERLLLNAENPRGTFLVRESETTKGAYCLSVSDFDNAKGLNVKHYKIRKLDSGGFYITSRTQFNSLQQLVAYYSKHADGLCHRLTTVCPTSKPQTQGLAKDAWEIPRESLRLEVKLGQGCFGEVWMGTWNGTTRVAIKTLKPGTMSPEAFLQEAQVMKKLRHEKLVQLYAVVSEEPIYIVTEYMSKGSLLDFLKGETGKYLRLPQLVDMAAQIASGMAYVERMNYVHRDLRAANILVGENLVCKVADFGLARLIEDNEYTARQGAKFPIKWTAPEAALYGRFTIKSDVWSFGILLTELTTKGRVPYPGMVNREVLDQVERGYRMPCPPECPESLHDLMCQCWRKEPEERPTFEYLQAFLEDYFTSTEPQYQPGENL", "test": "cSrc inhibition and kinase selectivity profile assay", "assay_type": "biochemical", "conditions": "500 nM; relative to DMSO; read-out: Residual enzymatic activity", "experimental": "The activity of MT-SYK-03 against cSrc kinase and selectivity profile towards other 341 kinases was determined at Reaction Biology Corporation (Malvern, PA, USA) using the standard kinase assay protocol. […]; unbound phosphate was removed by extensive washing of filters in phosphoric acid. Kinase activity data was expressed as the percent remaining kinase activity in test samples compared to vehicle (dimethyl sulfoxide) reactions based on the radioactivity of reaction products (see Table S2). Experiment was replicated twice."}, "[5]": {"molecular_target": "T3, DYRK4 (Homo sapiens, UniProt Q9NR20)", "T3 construct": "purchased Reaction Biology Corporation", "T3 sequence (Q9NR20 whole entry)": "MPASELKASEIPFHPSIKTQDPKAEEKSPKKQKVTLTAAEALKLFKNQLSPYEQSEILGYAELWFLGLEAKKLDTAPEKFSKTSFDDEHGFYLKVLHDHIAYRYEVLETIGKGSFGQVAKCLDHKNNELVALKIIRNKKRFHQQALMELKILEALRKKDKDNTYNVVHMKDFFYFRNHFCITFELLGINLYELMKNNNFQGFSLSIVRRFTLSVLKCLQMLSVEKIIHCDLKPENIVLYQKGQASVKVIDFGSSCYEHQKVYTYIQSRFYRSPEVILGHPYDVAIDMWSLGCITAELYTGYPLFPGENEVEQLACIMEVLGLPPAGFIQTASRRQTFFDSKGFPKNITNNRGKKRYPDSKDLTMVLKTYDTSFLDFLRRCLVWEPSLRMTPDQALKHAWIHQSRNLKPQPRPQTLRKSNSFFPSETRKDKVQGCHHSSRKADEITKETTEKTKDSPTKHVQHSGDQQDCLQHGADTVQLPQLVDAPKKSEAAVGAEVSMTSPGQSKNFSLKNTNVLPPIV", "test": "Kinase selectivity profile assay", "assay_type": "biochemical", "conditions": "500 nM; relative to DMSO; read-out: Residual enzymatic activity", "experimental": "The activity of MT-SYK-03 against cSrc kinase and selectivity profile towards other 341 kinases was determined at Reaction Biology Corporation (Malvern, PA, USA) using the standard kinase assay protocol. […] Kinase activity data was expressed as the percent remaining kinase activity in test samples compared to vehicle (dimethyl sulfoxide) reactions based on the radioactivity of reaction products (see Table S2). Experiment was replicated twice."}, "[6]": {"conditions": "ankle, day 16, MTX 0.075 mg/kg PO QD + test article vehicle PO BID, group mean"}, "[7]": {"conditions": "ankle, day 16, MTX 0.075 mg/kg PO QD + test article vehicle PO BID, individual joint (animal, R/L)"}, "[8]": {"conditions": "ankle, day 16, MTX 0.075 mg/kg PO QD + test article vehicle PO BID, vs vehicle"}, "[9]": {"conditions": "knee, day 16, MTX 0.075 mg/kg PO QD + test article vehicle PO BID, group mean"}, "[10]": {"conditions": "knee, day 16, MTX 0.075 mg/kg PO QD + test article vehicle PO BID, individual joint (animal, R/L)"}, "[11]": {"conditions": "knee, day 16, MTX 0.075 mg/kg PO QD + test article vehicle PO BID, vs vehicle"}}, "note": "“And” between values parts separate entries of the source, which are not always exact repeats. Equal values may be shown once."}
{"smiles": "CN(Cc1cnc2nc(N)nc(N)c2n1)c1ccc(C(=O)N[C@@H](CCC(=O)O)C(=O)O)cc1", "note": "[MTX, methotrexate, reference compound]", "values": [{"measurement": "Animal death", "setting": "[1]; Methotrexate 0.2 mg/kg QD intragastric, 14 days", "value": 0, "unit": "%"}, {"measurement": "Animal death", "setting": "[1]; Methotrexate 0.2 mg/kg QD intragastric, 18 days", "value": 0, "unit": "%"}, {"measurement": "Animal death", "setting": "[1]; Methotrexate 0.2 mg/kg QD intragastric, 21 days", "value": 0, "unit": "%"}, {"measurement": "Animal death", "setting": "[1]; Methotrexate 0.2 mg/kg QD intragastric, 25 days", "value": 10, "unit": "%"}, {"measurement": "Animal death", "setting": "[1]; Methotrexate 0.2 mg/kg QD intragastric, 28 days", "value": 20, "unit": "%"}, {"measurement": "Animal death", "setting": "[1]; Methotrexate 0.5 mg/kg QD intragastric, 14 days", "value": 0, "unit": "%"}, {"measurement": "Animal death", "setting": "[1]; Methotrexate 0.5 mg/kg QD intragastric, 18 days", "value": 0, "unit": "%"}, {"measurement": "Animal death", "setting": "[1]; Methotrexate 0.5 mg/kg QD intragastric, 21 days", "value": 0, "unit": "%"}, {"measurement": "Animal death", "setting": "[1]; Methotrexate 0.5 mg/kg QD intragastric, 25 days", "value": 20, "unit": "%"}, {"measurement": "Animal death", "setting": "[1]; Methotrexate 0.5 mg/kg QD intragastric, 28 days", "value": 70, "unit": "%"}, {"measurement": "Rats died", "setting": "[1]; rat AIA, MTX 0.2 mg/kg", "value": 20, "unit": "%"}, {"measurement": "Rats died", "setting": "[1]; rat AIA, MTX 0.5 mg/kg", "value": 70, "unit": "%"}, {"measurement": "Volume of treated (CFA-injected) paws", "setting": "[1]; rat AIA, day 28", "value": "statistically significant reductions of paw volume"}, {"measurement": "Volume of non-involved paws", "setting": "[1]; rat AIA, high-dose MTX, day 28", "value": "decreased the volume of non-involved paws"}, {"measurement": "Volume of non-involved paws", "setting": "[1]; rat AIA, low-dose MTX, day 28", "value": "no statistically significant effect"}, {"measurement": "Bone Resorption score, Mean", "setting": "[2]; [6]", "value": 1.19}, {"measurement": "Cartilage Damage score, Mean", "setting": "[2]; [6]", "value": 2.00}, {"measurement": "Inflammation score, Mean", "setting": "[2]; [6]", "value": 3.88}, {"measurement": "Pannus score, Mean", "setting": "[2]; [6]", "value": 1.19}, {"measurement": "Periosteal Bone Formation score, Mean", "setting": "[2]; [6]", "value": 0.63}, {"measurement": "Periosteal Naïve Bone Width Actual, Mean", "setting": "[2]; [6]", "value": 126.00, "unit": "μm"}, {"measurement": "Summed Histopathology Scores, Mean", "setting": "[2]; [6]", "value": 8.88}, {"measurement": "Bone Resorption score (0=normal to 5=severe)", "setting": "[2]; [7]", "value": "2 and 0 and 1 and 0.5"}, {"measurement": "Cartilage Damage score (0=normal to 5=severe)", "setting": "[2]; [7]", "value": "3 and 0.5 and 2"}, {"measurement": "Inflammation score (0=normal to 5=severe)", "setting": "[2]; [7]", "value": "5 and 1 and 4 and 3 and 2"}, {"measurement": "Pannus score (0=normal to 5=severe)", "setting": "[2]; [7]", "value": "2 and 0 and 1 and 0.5"}, {"measurement": "Periosteal Bone Formation score (0=normal to 5=severe)", "setting": "[2]; [7]", "value": "1 and 0 and 0.5"}, {"measurement": "Periosteal Naïve Bone Width 16x Measure", "setting": "[2]; [7]", "value": "3 and 4 and 0 and 2 and 1"}, {"measurement": "Periosteal Naïve Bone Width Actual", "setting": "[2]; [7]", "value": "189 μm and 252 μm and 0 μm and 126 μm and 63 μm"}, {"measurement": "Summed Histopathology Scores", "setting": "[2]; [7]", "value": "13 and 1.5 and 9.5 and 8.5 and 6.5 and 12 and 4"}, {"measurement": "Periosteal Naïve Bone Width, ANOVA to Vehicle", "setting": "[2]; ankle, day 16, MTX 0.075 mg/kg PO QD + test article vehicle PO BID, p value", "value": "p < 0.05"}, {"measurement": "Bone Resorption score, % inhibition", "setting": "[2]; [8]", "value": 19, "unit": "%"}, {"measurement": "Cartilage Damage score, % inhibition", "setting": "[2]; [8]", "value": 17, "unit": "%"}, {"measurement": "Inflammation score, % inhibition", "setting": "[2]; [8]", "value": 14, "unit": "%"}, {"measurement": "Pannus score, % inhibition", "setting": "[2]; [8]", "value": 19, "unit": "%"}, {"measurement": "Periosteal Bone Formation score, % inhibition", "setting": "[2]; [8]", "value": 51, "unit": "%"}, {"measurement": "Periosteal Naïve Bone Width, % inhibition", "setting": "[2]; [8]", "value": 44, "unit": "%"}, {"measurement": "Summed Histopathology Scores, % inhibition", "setting": "[2]; [8]", "value": 20, "unit": "%"}, {"measurement": "Bone Resorption score, Mean", "setting": "[2]; [9]", "value": 0.28}, {"measurement": "Cartilage Damage score, Mean", "setting": "[2]; [9]", "value": 0.66}, {"measurement": "Inflammation score, Mean", "setting": "[2]; [9]", "value": 2.03}, {"measurement": "Pannus score, Mean", "setting": "[2]; [9]", "value": 0.44}, {"measurement": "Summed Histopathology Scores, Mean", "setting": "[2]; [9]", "value": 3.41}, {"measurement": "Bone Resorption score (0=normal to 5=severe)", "setting": "[2]; [10]", "value": "0.5 and 0 and 1"}, {"measurement": "Cartilage Damage score (0=normal to 5=severe)", "setting": "[2]; [10]", "value": "1 and 0.5 and 0 and 2"}, {"measurement": "Inflammation score (0=normal to 5=severe)", "setting": "[2]; [10]", "value": "3 and 0.5 and 1 and 0 and 5 and 4 and 2"}, {"measurement": "Pannus score (0=normal to 5=severe)", "setting": "[2]; [10]", "value": "0.5 and 0 and 1"}, {"measurement": "Summed Histopathology Scores", "setting": "[2]; [10]", "value": "5 and 4.5 and 0.5 and 2 and 1 and 0 and 9 and 6 and 5.5 and 3"}, {"measurement": "Bone Resorption score, % inhibition", "setting": "[2]; [11]", "value": 61, "unit": "%"}, {"measurement": "Cartilage Damage score, % inhibition", "setting": "[2]; [11]", "value": 50, "unit": "%"}, {"measurement": "Inflammation score, % inhibition", "setting": "[2]; [11]", "value": 36, "unit": "%"}, {"measurement": "Pannus score, % inhibition", "setting": "[2]; [11]", "value": 42, "unit": "%"}, {"measurement": "Summed Histopathology Scores, % inhibition", "setting": "[2]; [11]", "value": 43, "unit": "%"}, {"measurement": "Decrease of periosteal bone width in knee joints", "setting": "[2]; rat CIA, MTX 0.075 mg/kg PO QD", "value": "~ 43%"}, {"measurement": "Histopathology scores for cartilage damage and bone resorption, ankles and knees", "setting": "[2]; rat CIA, day 16", "value": "did not show statistical significance for any parameter"}]}
{"smiles": "COc1cc(Nc2ncc(F)c(Nc3ccc4c(n3)NC(=O)C(C)(C)O4)n2)cc(OC)c1OC", "note": "[R406, reference compound]", "values": [{"measurement": "remaining activity at 0.5 µM", "setting": "[3]", "value": 131, "unit": "%"}, {"measurement": "remaining activity at 0.5 µM", "setting": "[4]", "value": 6.8, "unit": "%"}, {"measurement": "remaining activity at 0.5 µM", "setting": "[5]", "value": 77.1, "unit": "%"}]}
